The source of these data is patent publication US20040162467A1, “Non-invasive transudate extraction” (priority 2001, published 2004).

The nature of data set [1]: Concentrations in transdermal exudate collected by different formats from sheep, versus serum. As for the experimental part:
(§1) Sodium lauryl sulfate (40%) and either a commercial ultrasound conductive gel (Aquasonic, Parker Lab., NJ 07004, USA) or a 10% ethanol gel (the two gels were alternated in use) are employed. These gels are designated SLS-UG and SLS-EG respectively herein. Collected SLS-UG and SLS-EG are assayed as for blood. Saliva was divided into two samples. The first sample is stored at −20° C. and assayed as for blood. The second sample is assayed at the time of experimentation using the apparatus and immunosensors described above.
Ten of these animals were used to develop the transdermal exudate collection technique. These 10 animals were penned as above, and a catheter inserted into the jugular vein using known techniques in the art. A mixture of sodium lauryl sulfate and either SLS-UG or SLS-EG was positioned onto the shaved area on the back of each animal. […] At the end of the hour, the remaining mix on the back was collected. The entire procedure was repeated three times. This mix was subject to assay (see below) for hormones and glucose content.
On the following day, one of the two gel mixes were rubbed on and, after 10 min, ultrasound (20 kHz, 10 W/cm^2, pulsed 5 s on/5 s off using an ITO Physiotherapy and rehabilitation unit, Tokyo 176-8605, Japan) applied for 1 min directly onto the mix. Ten minutes later, the mix was again collected and measured. This was then repeated with 2 min of the ultrasound application, and on a following day, the entire procedure repeated using the alternative gel mix on the shaved patch on the animal. Times greater than 2 min were not attempted due to potential risk of skin damage. Blood samples were collected at the time of ultrasound application and again at the time when the gel mix was also collected. The entire ultrasound procedure was then repeated on subsequent days with the addition of an application of a 9V electric field either side of the ultrasound head (in contact with skin).
On a separate day, in a further repeat of the above procedure; the collecting head (50) was positioned onto the ultrasound device. The ultrasound device was modified to ensure good coupling for use with the collecting head and delivery of needed parameters to the skin. The output of the device was reset to achieve the same energy and pulse delivery to the skin's surface as when the collecting head was not present, and the ultrasound device had been placed directly in contact with the gels (as described above). Three fluid flow rates into the collection chamber of the head were compared: 150, 300 and 600 μl/min. The effluent fluid was then assayed. On a final day, this was then repeated with the immunosensors positioned in the exit line from the chamber, with immunosensor measurement of the hormones made as has been described above.

Data set [2] can be described thus: Serum, transdermal and saliva samples from sheep before, during and after exercise. Conditions: for Exudate: transdermal; for Saliva: 20-min saliva lag. As for the experimental part:
as §1
(§2) Student t tests, ANOVA or Wilcoxon test for paired samples are made as appropriate. Statistical significance is taken at P≦0.05 level. For analysis across the exercise stress, data is grouped into pre, during and post exercise values as actual sample times relative to the exercise for transdermal and blood obtained values. For pre, during and post exercise grouping of saliva samples, a 20-min lag was allowed relative to blood and transdermal values in sheep and a 30-min lag in human subjects.
In the remaining 10 sheep, experimentation took place on three separate days, each 3 days apart. On days of experimentation, animals were penned as above and the jugular vein of the animal was catheterised. Animals were left to rest for 50 min and then a single ultrasound application applied for 1 min as above. […] A series of electrosonophoresis collections were made concurrently with blood collection from the jugular vein, every 5 min for a further 1 h. Saliva samples were collected on every second blood sample (i.e. every 10 min). At completion of this time, a human shepherd, intermittently for 30 min, then ran the animals around a paddock. During this 30 min, each animal was briefly restrained manually and sampled on all three parameters every 10 min (i.e. three samples repeated three times). At the end of this period, animals were repenned and rested for 10 min, and a further saliva collection was made. Following this saliva collection for a further 1-h period, collection as above, prior to exercise, was repeated. In this manner for each animal, in each session, 27 blood and transdermal samples and 16 saliva samples were collected.

Data set [3] in a line: Serum, transdermal and saliva samples from human subjects before, during and after exercise. Conditions: for Exudate: transdermal; for Saliva: 30-min saliva lag. Here is the method:
as §1, §2
Ten human volunteers (males aged 19-23, body weights 85-103 kg) were seated at 09:30 h. During the experiment, they were held at a room temperature of 20-22° C. An initial 1 min burst of ultrasound, as for the sheep (above), was made on the volar surface of the forearm, following application of SLS-EG mix. Ten minutes later, transdermal (electrosonophoresis) collection began from this site on this forearm, simultaneous to a venepuncture blood collection being made from the other. A saliva collection was then made, followed by a second, third and fourth saliva collection 20, 30 and 40 min after the blood sample. These measurements were repeated three times over 3 h (i.e. a total of three blood and transdermal samples and 12 saliva samples). In between each sampling series, subjects were allowed to walk around, eat lightly and drink water. Following this collection, the five volunteers exercised at moderate intensities, for 40 min (heart rates maintained in the range of 130-160 bpm) on a rowing machine, stopping briefly at 10, 20 and 30 min to give blood, transdermal and saliva samples. The subjects gave another set of samples at 40 min upon completion of rowing, then warmed down lightly with stretching exercises for a further 10 min and gave a further saliva sample at the end of this time. Two more saliva samples were collected at 60 and 70 min after exercise started. At the end of this time, sampling was repeated as above, prior to exercise, for a further 3 h. The entire procedure was repeated twice a week for 3 weeks (a total of six times). The distance rowed (m) represented the total work rate during the exercise.

Data set [4] is described as follows: Procalcitonin/TNF alpha and IL 6 (measure of bacterial sepsis): serum versus transdermal. The class given is in vivo.
Data set [5] can be described thus: Other analytes: transdermal collection levels versus serum levels.
The mark [6] stands for this setting: sheep, SLS + 10% E + US 1 min + 9 V.
[7] abbreviates: sheep, SLS + 10% E + US 1 min + 9 V + Collection Head.
Where [8] appears, read: first group of subjects (no condition given).
[9] abbreviates: second group of subjects (no condition given).
[10] abbreviates: second group: females pregnant and lactating.

On to “Insulin: endogenous hormone analyte measured in serum and exudate”, for which the Serum in data set [1] (sheep, SLS + 10% E) stood at 0.18 ± 0.09 ng/mL; in data set [1] (sheep, SLS + 10% E + US 1 min), 0.4 ± 0.15 ng/mL; in data set [1] (setting [6]) it was 0.21 ± 0.08 ng/mL; in data set [1] (setting [7]), 0.19 ± 0.11 ng/mL; in data set [1] (sheep, SLS + UG), 0.2 ± 0.6 ng/mL; in data set [2] (10 min Exercise), 2.1e-07 ± 7e-08 mg/L. Also, the Serum worked out at 1.2e-07 ± 5e-08 mg/L in data set [2] (20 min Exercise); 1.9e-07 ± 8e-08 mg/L in data set [2] (Postexercise); 13.1 ± 3.0 μIU/ml in data set [3] (0 min Exercise); 6.3 ± 3.8 μIU/ml in data set [3] (20 min Exercise); 5.4 ± 4.1 μIU/ml in data set [3] (30 min Exercise); 14.1 ± 5.5 μIU/ml in data set [3] (Postexercise). Besides, the Exudate in data set [1] (sheep, SLS + 10% E + US 1 min) is 0.0004 ± 0.002 ng/mL; in data set [1] (setting [6]), 0.0064 ± 0.0041 ng/mL; in data set [1] (setting [7]), 0.013 ± 0.006 ng/mL; in data set [2] (20 min Exercise), 9e-09 ± 3e-09 mg/L; in data set [2] (30 min Exercise) it was 8e-09 ± 4e-09 mg/L; in data set [2] (Postexercise), 1.4e-08 ± 8e-09 mg/L. Also, the Exudate in data set [2] (Preexercise) is 2.9e-08 ± 9e-09 mg/L; in data set [3] (10 min Exercise), 0.90 ± 0.28 μIU/ml; in data set [3] (30 min Exercise) it was 0.46 ± 0.21 μIU/ml; in data set [3] (40 min Exercise) it was 0.57 ± 0.33 μIU/ml; in data set [3] (Postexercise), 1.15 ± 0.48 μIU/ml; in data set [3] (Preexercise), 1.35 ± 0.90 μIU/ml. Moreover, the “Recovery as % of serum levels” value in data set [1] (sheep, gel mix with addition of ultrasound application) is given as 2%.

Consider IL 6: measure of bacterial sepsis, for which the Serum in data set [4] (subject number 20) was 0.3 to 11.5 ng/mL; in data set [4] (subject number 30), 0.1 to 0.3 ng/mL. In addition, the Transdermal in data set [4] (subject number 20) fell in the range of 0.04 to 1.2 ng/mL; in data set [4] (subject number 30), 0.03 to 0.05 ng/mL.

With `CC(=O)[C@H]1CC[C@H]2[C@@H]3CCC4=CC(=O)CC[C@]4(C)[C@H]3CC[C@]12C` [Progesterone], the results for the Serum levels in data set [5] (setting [8]) and in data set [5] (setting [9]) were 1e-06 to 1.2e-05 mg/mL and 8e-06 to 2.5e-05 mg/mL, respectively. Moreover, the Transdermal collection levels in data set [5] (setting [8]) was in the range of 0.2 to 1.1 ng/mL; in data set [5] (setting [9]), 0.5 to 2.8 ng/mL.

In data set [5] (setting [8]), `CCO` [Ethanol, ethanol] returned a Serum levels of 0.01 to 0.9 mg/mL and a Transdermal collection levels of 20000 to 80000 ng/mL. Moreover, in data set [5] (second group (loading)), the Serum levels was 0.4 to 1.4 mg/mL (loading) and the Transdermal collection levels fell in the range of 50000 to 110000 ng/mL.

For `C[C@]12CC[C@@H]3c4ccc(O)cc4CC[C@H]3[C@@H]1CC[C@@H]2O` [Estradiol, 17-β estradiol], the “Recovery as % of serum levels” value in data set [1] (in vivo) is on record as 1%. Besides, the Serum in data set [2] (10 min Exercise) is 1.5 ± 1.1 mg/L; in data set [2] (20 min Exercise), 1.3 ± 1.1 mg/L; in data set [2] (30 min Exercise), 1.5 ± 1.3 mg/L; in data set [2] (Postexercise), 2.2 ± 1.1 mg/L; in data set [2] (Preexercise) it was 1.4 ± 1.2 mg/L. The Saliva came to 0.038 ± 0.011 mg/L in data set [2] (10 min Exercise); 0.046 ± 0.009 mg/L in data set [2] (20 min Exercise); 0.03 ± 0.012 mg/L in data set [2] (30 min Exercise); 0.052 ± 0.021 mg/L in data set [2] (Postexercise); 0.05 ± 0.03 mg/L in data set [2] (Preexercise); 0.76 ± 0.38 ng/L in data set [3] (0 min Exercise). For the same molecule, the Saliva came out at 0.75 ± 0.51 ng/L in data set [3] (10 min Exercise); 0.83 ± 0.39 ng/L in data set [3] (20 min Exercise); 0.85 ± 0.22 ng/L in data set [3] (30 min Exercise); 0.68 ± 0.26 ng/L in data set [3] (40 min Exercise); 0.45 ± 0. ng/l in data set [3] (Postexercise); 0.71 ± 0.25 ng/L in data set [3] (Preexercise). In addition, the Exudate in data set [2] (10 min Exercise) is 0.14 ± 0.08 mg/L; in data set [2] (20 min Exercise), 0.12 ± 0.07 mg/L; in data set [2] (30 min Exercise), 0.14 ± 0.09 mg/L; in data set [2] (Postexercise) it was 0.20 ± 0.06 mg/L; in data set [2] (Preexercise) it was 0.12 ± 0.06 mg/L; in data set [3] (0 min Exercise), 1.53 ± 0.59 ng/L. The Exudate in data set [3] (10 min Exercise) was determined as 1.47 ± 0.94 ng/L; in data set [3] (20 min Exercise), 1.74 ± 0.54 ng/L; in data set [3] (30 min Exercise), 2.14 ± 0.86 ng/L; in data set [3] (40 min Exercise), 1.53 ± 0.51 ng/L; in data set [3] (Postexercise), 1.11 ± 0.55 ng/L; in data set [3] (Preexercise), 1.23 ± 0.46 ng/L.

For the molecule TNF alpha, in data set [4] (subject number 20), the “TNF alpha Trandermal” value lay within 0.5 to 12 ng/mL and the Transdermal fell in the range of 0.03 to 1.4 ng/mL. In data set [4] (subject number 30), the “TNF alpha Trandermal” value fell in the range of 0.1 to 0.5 ng/mL and the Transdermal lay in the range of 0.005 to 0.01 ng/mL.

In data set [5] (setting [8]), `Cn1c(=O)c2c(ncn2C)n(C)c1=O` [Caffeine] returned a Serum levels of 1 to 5 mg/mL and a Transdermal collection levels of 200000 to 800000 ng/mL. In addition, in data set [5] (second group (loading)), the Serum levels was 4 to 14 mg/mL (loading) and the Transdermal collection levels lay within 300000 to 1.5e+06 ng/mL.

In the case of `CN[C@@H](C)[C@@H](O)c1ccccc1` [Pseudoephedrine, reference compound], the Serum levels was 0.001 to 0.008 mg/mL in data set [5] (setting [8]) and 4-25 μg/ml females in data set [5] (setting [10]). For the same molecule, the Transdermal collection levels lay within 200 to 800 ng/mL in data set [5] (setting [8]) and 400 to 2100 ng/mL in data set [5] (setting [10]).

B1: Prolactin: endogenous hormone analyte (protein, UniProt P01236 29-227, looked up)
Prolactin: LPICPGGAARCQVTLRDLFDRAVVLSHYIHNLSSEMFSEFDKRYTHGRGFITKAINSCHTSSLATPEDKEQAQQMNQKDFLSLIVSILRSWNEPLYHLVTEVRGMQEAPEAILSKAVEIEEQTKRLLEGMELIVSQVHPETKENEIYPVWSGLPSLQMADEESRLSAYYNLLHCLRRDSHKIDNYLKLLKCRIIHNNNC
On to B1, for which the Serum levels in data set [5] (setting [8]) is 1e-06 to 8e-06 mg/mL; in data set [5] (setting [10]), 4-100 ng/ml females. For the same molecule, the Transdermal collection levels fell in the range of 0.02 to 0.8 ng/mL in data set [5] (setting [8]) and 0.4 to 10 ng/mL in data set [5] (setting [10]).
